Laboratory results as given in ChEMBL document CHEMBL5154930, “Design, Synthesis, and Biological Evaluations of DOT1L Peptide Mimetics Targeting the Protein-Protein Interactions between DOT1L and MLL-AF9/MLL-ENL” (J Med Chem, 2022).
Active and inactive are the calls of the source. The rule behind the calls is not given here. Non-standard residues stand in square brackets, D forms with d. Residues, ends and D or L forms follow the SMILES beside them. *: point of attachment. X1 = C[C@H](N*)c1nc2cccc(-c3ccccc3)c2[nH]1; Ala(cPent) = N[C@@H](CC1CCCC1)C(=O)O; Pentanoyl(4-Me) = CC(C)CCC(=O)*; Dap(Me) = CNC[C@H](N)C(=O)O

Experiments:
[1] = tested on: MOLM-13; test: Down regulation of SSBP2 gene in human MOLM-13 cells by RNA-sequencing analysis; assay type: functional, cell-based
[2] = tested on: MOLM-13; test: Inhibition of methylation of H3K79 in human MOLM-13 cells assessed as inhibition of methylation at HOXA3 gene cluster by chromatin immunoprecipitation assay; assay type: functional, cell-based
[3] = molecular target: T1, Protein AF-9 (Homo sapiens) (UniProt P42568); test: Binding affinity to AF9 in human MOLM-13 cells assessed as thermal stabilization of protein at 60 degree Celsius at 1 uM for 12 hrs by CETSA; assay type: cell-based
T1 sequence (whole entry): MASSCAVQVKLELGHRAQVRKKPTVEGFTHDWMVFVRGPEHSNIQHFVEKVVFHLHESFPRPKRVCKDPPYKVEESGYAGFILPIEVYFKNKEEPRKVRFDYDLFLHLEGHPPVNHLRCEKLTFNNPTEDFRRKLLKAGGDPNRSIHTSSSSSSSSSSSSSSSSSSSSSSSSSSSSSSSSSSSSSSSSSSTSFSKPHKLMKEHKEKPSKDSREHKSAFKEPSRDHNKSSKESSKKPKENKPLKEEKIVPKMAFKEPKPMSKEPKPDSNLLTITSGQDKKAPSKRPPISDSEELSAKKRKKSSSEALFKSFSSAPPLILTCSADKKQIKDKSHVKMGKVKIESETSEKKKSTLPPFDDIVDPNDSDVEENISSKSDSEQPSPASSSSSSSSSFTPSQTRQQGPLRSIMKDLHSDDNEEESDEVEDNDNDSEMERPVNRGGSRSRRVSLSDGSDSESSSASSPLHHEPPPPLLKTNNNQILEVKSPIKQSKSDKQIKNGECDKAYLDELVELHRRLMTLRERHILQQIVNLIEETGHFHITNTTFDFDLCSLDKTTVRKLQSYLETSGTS

[4] = tested on: MOLM-13; test: Down regulation of CDK6 gene in human MOLM-13 cells by RNA-sequencing analysis; assay type: functional, cell-based
[5] = tested on: MOLM-13; test: cells; settings: Homo sapiens, MOLM-13, 216 h
Description: Anticancer activity against human MOLM-13 cells harbouring MLL-AF9 assessed as inhibition of cell growth treated for 9 days measured by CCK-8 kit method

[6] = tested on: MOLM-13; test: Down regulation of HOXA10 gene in human MOLM-13 cells by RNA-sequencing analysis; assay type: functional, cell-based
[7] = tested on: MOLM-13; test: Down regulation of CDKN1B gene in human MOLM-13 cells by RNA-sequencing analysis; assay type: functional, cell-based
[8] = tested on: MOLM-13; test: Down regulation of ARID1B gene in human MOLM-13 cells by RNA-sequencing analysis; assay type: functional, cell-based
[9] = tested on: MOLM-13; test: Inhibition of methylation of H3K79 in human MOLM-13 cells assessed as inhibition of methylation at HOXA7 gene cluster by chromatin immunoprecipitation assay; assay type: functional, cell-based
[10] = tested on: MOLM-13; test: Down regulation of HOXA3 gene in human MOLM-13 cells by RNA-sequencing analysis; assay type: functional, cell-based
[11] = tested on: MOLM-13; test: Inhibition of methylation of H3K79 in human MOLM-13 cells assessed as inhibition of methylation at HOXA9 gene cluster by chromatin immunoprecipitation assay; assay type: functional, cell-based
[12] = tested on: MOLM-13; test: Inhibition of methylation of H3K79 in human MOLM-13 cells assessed as inhibition of methylation at MEIS1 gene cluster by chromatin immunoprecipitation assay; assay type: functional, cell-based
[13] = tested on: MOLM-13; test: Down regulation of PBX3 gene in human MOLM-13 cells by RNA-sequencing analysis; assay type: functional, cell-based
[14] = molecular target: T2, Protein AF-9 (Homo sapiens, UniProt P42568); test: Binding affinity to MBP-tagged human recombinant AF9 (487 to 568 residues) incubated for 40 mins by measuring fluorescence polarization by microplate reader method
T2 sequence (P42568 whole entry): T1 sequence (whole entry)

[15] = tested on: MOLM-13; test: Inhibition of methylation of H3K79 in human MOLM-13 cells assessed as inhibition of methylation at HOXA6 gene cluster by chromatin immunoprecipitation assay; assay type: functional, cell-based
[16] = molecular target: T1, Protein AF-9 (Homo sapiens); test: Binding affinity to AF9 in human MOLM-13 cells assessed as thermal stabilization of protein at 55 degree Celsius for 12 hrs by CETSA; assay type: cell-based; settings: dose <= 4.0 µM, DDE = dose-dependent effect
[17] = tested on: MOLM-13; test: Down regulation of SKP2 gene in human MOLM-13 cells by RNA-sequencing analysis; assay type: functional, cell-based
[18] = tested on: MOLM-13; test: Down regulation of MCM2 gene in human MOLM-13 cells by RNA-sequencing analysis; assay type: functional, cell-based
[19] = tested on: MOLM-13; test: Inhibition of methylation of H3K79 in human MOLM-13 cells assessed as inhibition of methylation at HOXA13 gene cluster by chromatin immunoprecipitation assay; assay type: functional, cell-based
[20] = tested on: MOLM-13; test: Down regulation of JMJD1C gene in human MOLM-13 cells by RNA-sequencing analysis; assay type: functional, cell-based
[21] = tested on: MOLM-13; test: Down regulation of […] gene in human MOLM-13 cells by RNA-sequencing analysis; assay type: functional, cell-based
[22] = tested on: MOLM-13; test: Inhibition of methylation of H3K79 in human MOLM-13 cells assessed as inhibition of methylation at HOXA4 gene cluster by chromatin immunoprecipitation assay; assay type: functional, cell-based
[23] = tested on: MOLM-13; test: Down regulation of GBE1 gene in human MOLM-13 cells by RNA-sequencing analysis; assay type: functional, cell-based
[24] = tested on: MOLM-13; test: Down regulation of HPGD gene in human MOLM-13 cells by RNA-sequencing analysis; assay type: functional, cell-based
[25] = tested on: MOLM-13; test: Inhibition of methylation of H3K79 in human MOLM-13 cells assessed as inhibition of methylation at HOXA-AS2 gene cluster by chromatin immunoprecipitation assay; assay type: functional, cell-based
[26] = tested on: MOLM-13; test: Down regulation of HOXA9 gene in human MOLM-13 cells by RNA-sequencing analysis; assay type: functional, cell-based
[27] = tested on: KOPN-8; test: cells; settings: Homo sapiens, KOPN-8, 192 h
Description: Anticancer activity against human KOPN-8 cells harbouring MLL-ENL assessed as inhibition of cell growth treated for 8 days measured by CCK-8 kit method

[28] = tested on: MOLM-13; test: Down regulation of AC011043.1 gene in human MOLM-13 cells by RNA-sequencing analysis; assay type: functional, cell-based
[29] = tested on: RS4-11; test: Anticancer activity against human RS4-11 cells assessed as inhibition of cell growth treated for 8 days measured by CCK-8 kit method; assay type: functional, cell-based; settings: RS4-11, 192 h
[30] = tested on: MOLM-13; test: Down regulation of MEIS1 gene in human MOLM-13 cells by RNA-sequencing analysis; assay type: functional, cell-based
[31] = Apparent permeability across apical to basolateral side in human Caco-2 cells; assay type: ADME, cell-based
[32] = tested on: MOLM-13; test: cells; settings: Homo sapiens, MOLM-13, 144 h
Description: Anticancer activity against human MOLM-13 cells harbouring MLL-AF9 assessed as inhibition of cell growth treated for 6 days measured by CCK-8 kit method

[33] = tested on: MOLM-13; test: Inhibition of methylation of H3K79 in human MOLM-13 cells assessed as inhibition of methylation at HOXA1 gene cluster by chromatin immunoprecipitation assay; assay type: functional, cell-based
[34] = tested on: MOLM-13; test: cells; settings: Homo sapiens, MOLM-13, 96 h
Description: Anticancer activity against human MOLM-13 cells harbouring MLL-AF9 assessed as inhibition of cell growth treated for 4 days measured by CCK-8 kit method

[35] = tested on: MOLM-13; test: Down regulation of CDK1 gene in human MOLM-13 cells by RNA-sequencing analysis; assay type: functional, cell-based
[36] = Stability in human plasma assessed as compound remaining measured upto 1440 mins by HPLC analysis; assay type: ADME, cell-free; settings: read-out: Stability
[37] = tested on: K562; test: Anticancer activity against human K562 cells assessed as inhibition of cell growth treated for 8 days measured by CCK-8 kit method; assay type: functional, cell-based; settings: K562, 192 h
[38] = tested on: MOLM-13; test: Down regulation of TUBA1B gene in human MOLM-13 cells by RNA-sequencing analysis; assay type: functional, cell-based
[39] = tested on: MOLM-13; test: Inhibition of methylation of H3K79 in human MOLM-13 cells assessed as inhibition of methylation at HOXA10 gene cluster by chromatin immunoprecipitation assay; assay type: functional, cell-based

- Activity [3]: Active
- IC50 [5]: 44 nM
- Ki [14]: 9 nM
- Activity [16]: Dde
- IC50 [27]: 100 nM
- IC50 [29]: 240 nM
- Papp A→B [31]: 1.97 ×10⁻⁶ cm/s
- IC50 [32]: 382 nM
- IC50 [34]: 972 nM
- remaining at 24 h [36]: 81.5%
- IC50 [37]: 59000 nM
Compound: CNC[C@H](NC(=O)[C@@H](NC(=O)[C@@H]1CCCN1C(=O)CCC(C)C)C(C)C)C(=O)N[C@@H](CC1CCCC1)C(=O)N[C@@H](C)c1nc2cccc(-c3ccccc3)c2[nH]1 ({Pentanoyl(4-Me)}-PV[Dap(Me)][Ala(cPent)]-X1)
- Activity [1]: Active
- inhibition [2]: Active
- Activity [4]: Active
- Activity [6]: Active
- Activity [7]: Active
- Activity [8]: Active
- inhibition [9]: Active
- Activity [10]: Active
- inhibition [11]: Active
- inhibition [12]: Active
- Activity [13]: Active
- inhibition [15]: Active
- Activity [17]: Active
- Activity [18]: Active
- inhibition [19]: Active
- Activity [20]: Active
- Activity [21]: Active
- inhibition [22]: Active
- Activity [23]: Active
- Activity [24]: Active
- inhibition [25]: Active
- Activity [26]: Active
- Activity [28]: Active
- Activity [30]: Active
- inhibition [33]: Active
- Activity [35]: Active
- Activity [38]: Active
- inhibition [39]: Active
